{"source": "patent US20250186403A1", "about": "(ARIZONA BOARD OF REGENTS ON BEHALF OF THE UNIVERSITY OF …, priority 2022, published 2025)", "key": {"A. fumigatus": {"system": "A. fumigatus", "assay": "MIC by microdilution method (resazurin)", "assay_type": "cell-based", "conditions": "Aspergillus fumigatus", "description": "Serial double dilution of the CMN was done in the RPMI-MOPS medium. Freshly grown fungal culture from the SD agar plate was resuspended in sterile water and diluted to get 0.1 OD at 600 nm. […] The plates were incubated at 30° C. for 48 h. Plates were checked for growth by visual observation. For Afu, resazurin was added to 44 µM and incubated for 12 h at 37° C. before noting a change in color from blue to pink by live cells. MIC is defined as the minimum concentration at which there is no growth when observed visually."}, "[1]": {"system": "Cne-WT in RAW 264.7 macrophages", "assay": "Phagocytosis assay (macrophage intracellular infection model)", "assay_type": "cell-based, Cryptococcus neoformans", "conditions": "for reduction of intracellular Cne in macrophages: 24 h, macrophage lysate", "description": "FIGS. 1B, 1C, and 1D show phagocytosis assays. RAW 264.7 cells were seeded in 24 well plates and differentiated into macrophages using PMA. Media was replaced with fresh media containing opsonized Cne-WT and incubated at 37° C. for 8 h. Cells were washed 3 times with PBS to remove non-phagocytosed fungal cells. […] Culture supernatants were diluted and plated onto SD agar plates for tittering the fungal load. The cells were washed thrice with PBS and homogenized with a small homogenizer, diluted, and plated on SD agar plates. Colonies were counted after 72 h. […] Treatment groups were compared with unpaired Student's t-test. p<0.05 is considered significant. […] Insert: enlarged view of the phagocytosed Cne cells. The cells were permeabilized with methanol and stained with Giemsa stain. CFU: […] Cne: Cryptococcus neoformans.\nPhagocytosis assay: Mouse monocyte/macrophage-like cells RAW 264.7 were seeded in the six-well plate in DMEM media with 10% FBS and incubated at 37° C. in a CO2 incubator. Once it reached 70% confluently, the cells were differentiated into macrophages by replacing the culture supernatant with fresh media containing 100 nM phorbol 12-myristate 13-acetate (PMA) and incubated at 37° C. for 48 h in a CO2 incubator. Differentiated cells in six-well plates were washed once with PBS to remove loosely bound cells. Cne-WT cells were grown overnight in the SD broth media and washed thrice in 0.1 mM PBS, opsonized with 20% human complement serum (Sigma, USA) and 20 μg glucuronoxylomannan specific antibody (clone 18B7, EMD Millipore, USA) by incubating at 37° C. for 30 min with rotating end to end. The Cne cells were washed thrice with PBS to remove unbound antibodies and serum components. The opsonized Cne cells were added to the macrophages at 1:10 ratio and incubated at 37° C. for 10 h. […] The fungal load in the media and the cells was estimated. For tittering, 100 μl of the culture supernatant was plated onto the SD-agar plates with tenfold dilutions. The cells were washed with PBS, scraped, and harvested in PBS, homogenized with a disposable homogenizer. A volume of 30 μl was mixed with 60 μl SD media and plated onto the SD agar plates. The plates were incubated at 30° C. for 72 h, and colonies were counted."}, "[2]": {"system": "Prp8 intein splicing in Cne-WT", "assay": "Western blot, in vivo Prp8 intein splicing in Cne", "assay_type": "cell-based, Cryptococcus neoformans", "conditions": "Cne-WT incubated with CMN 18 h", "description": "TCEP is added to a final concentration of 100 µM and incubated for 24 h. The substrate Nano-Glo luciferase (Promega) was added, and the resulting luminescence was read. IC50 was calculated using GraphPad prism. […] TCEP was added to a concentration of 1 mM and incubated for 24 h. From this reaction mixture, 10 μl was mixed with an equal volume of 2×SDA-PAGE loading dye and loaded onto 12% SDS-PAGE gel without boiling the sample. The gel was scanned with UV using Chemidoc (Bio Rad), and band intensities were quantified using Image Lab software. […] Cells were harvested and washed in PBS, lysed with bead lyser, and centrifuged at 10,000 rpm. An equal quantity of protein (50 μg) from each treatment was loaded onto 12% SDS-PAGE and blotted onto the NC membrane, blocked with 5% skimmed milk. The membrane was probed with anti-prp8 intein rabbit polyclonal sera, followed by goat anti-rabbit HRP antibody. Signals were developed using a chemiluminescent kit. The density of the spliced intein bands (˜20 kDa) were quantified using Image lab software. A band at ˜130 kDa is uncharacterized, as explained below. NC: nitrocellulose. Abs: absorbance\nDMSO was used as a control. An equal volume of freshly grown Cne-WT culture (0.2 OD at 600 nm) was added to obtain the final absorbance of 0.1 OD. […] Intensities of bands were quantified by image lab software and compared with that of control."}, "[3]": {"conditions": "Cryptococcus neoformans, RAW264.7, 24 h, read-out: inhibition of released Cne"}}, "data": [{"compound": "CNc1ccc2oc(C[C@H]3O[C@@]4(CC[C@H]3C)O[C@H]([C@H](C)C(=O)c3ccc[nH]3)[C@H](C)C[C@H]4C)nc2c1C(=O)O", "note": "[CMN, calcimycin]", "values": [{"measurement": "MIC", "setting": "A. fumigatus", "result": "> 50", "unit": "µM"}, {"measurement": "reduction of intracellular Cne in macrophages", "setting": "[1]; 0.3 μg/ml CMN", "result": 23, "unit": "%"}, {"measurement": "reduction of intracellular Cne in macrophages", "setting": "[1]; 0.6 μg/ml CMN", "result": 50, "unit": "%"}, {"measurement": "reduction of intracellular Cne in macrophages", "setting": "[1]; CMN", "result": 72, "unit": "%"}, {"measurement": "inhibition at 0.3 µg/mL", "setting": "[1]; [3]", "result": 41, "unit": "%"}, {"measurement": "inhibition at 0.6 µg/mL", "setting": "[1]; [3]", "result": 59, "unit": "%"}, {"measurement": "inhibition at 1.3 µg/mL", "setting": "[1]; [3]", "result": 69, "unit": "%"}, {"measurement": "released Cne (significance)", "setting": "[1]; at 0.3 μg/ml", "result": "significantly reduced"}, {"measurement": "growth of intracellular Cne in macrophages (significance)", "setting": "[1]; at 0.6 μg/ml", "result": "significantly reduced"}, {"measurement": "spliced intein (approximately 20 kDa) in western blot", "setting": "[2]", "result": "dose-dependent reduction in spliced intein"}]}]}
